The source of these data is patent US8658661B2, “Oxadiazole inhibitors of leukotriene production” (Boehringer Ingelheim International GmbH, priority 2010, dated 2014).

The target of assay [1] is T1, recombinant human FLAP protein (Homo sapiens, UniProt P20292).
T1 construct: made in house; host or cells: Sf9 insect cells (100,000×g membrane pellet used)
T1 sequence (P20292 1-161): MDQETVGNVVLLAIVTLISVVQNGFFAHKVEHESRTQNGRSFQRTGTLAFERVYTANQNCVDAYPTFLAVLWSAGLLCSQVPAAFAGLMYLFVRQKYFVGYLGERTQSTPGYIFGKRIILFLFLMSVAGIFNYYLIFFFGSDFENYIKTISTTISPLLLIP
Nature of the assay: FLAP binding assay (SPA, displacement of [125I]L-691,831). The note with it: membranes of sf9 cells expressing recombinant human FLAP; [125I]L-691,831 probe; read-out: FLAP binding IC50. Put shortly:
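Membranes from sf9 cells expressing human FLAP in pH 7.5 Tris buffer (MgCl2, EDTA, PMSF). Non-specific binding defined with 10 μM cold L-691,831.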

The test system of assay [2] is synthesis of LTB4 in human whole blood. Nature of the assay: Human whole blood assay (inhibition of LTB4 synthesis, calcimycin stimulated). In kind it is cell-based. The note with it: heparinized human whole blood, calcimycin 20 μM, plasma LTB4. Put shortly: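 LTB4 in plasma was quantified by HTRF immunoassay. Before that, compound-treated heparinized whole blood (15 min, 37 °C) received 20 μM final calcimycin for a further 30 min at 37 °C, followed by centrifugation at 1500×g.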

Where only a bound is given, the exact number is not on record here.

As to `CN(C)C(=O)Cn1cc(-c2nc([C@@](C)(c3ccc(-c4cnc(N)cn4)cc3)C3CC3)no2)cn1` [Example 176, 2-[4-(3-{(R)-1-[4-(5-Amino-pyrazin-2-yl)-phenyl]-1-cyclopropyl-ethyl}-[1,2,4]oxadiazol-5-yl)pyrazol-1-yl]-N,N-dimethyl-acetamide], the figures for the IC50 in assay [1] and in assay [2] were 0.0012 µM and 0.073 µM, respectively.
The like results for `Cc1nc(-c2ccc([C@](C)(c3noc(-c4cnn(CC(=O)N(C)C)c4)n3)C3CC3)cc2)cnc1N` [Example 177, 2-[4-(3-{(R)-1-[4-(5-Amino-6-methyl-pyrazin-2-yl)-phenyl]-1-cyclopropyl-ethyl}-[1,2,4]oxadiazol-5-yl)-pyrazol-1-yl]-N,N-dimethyl-acetamide] were, in that order, 0.0089 µM and 0.066 µM.
The like results for `Cc1cc(-c2ccc([C@](C)(c3noc(-c4cnn(CC(=O)N(C)C)c4)n3)C3CC3)cc2)cnc1N` [Example 178, 2-[4-(3-{(R)-1-[4-(6-Amino-5-methyl-pyridin-3-yl)-phenyl]-1-cyclopropyl-ethyl}-[1,2,4]oxadiazol-5-yl)-pyrazol-1-yl]-N,N-dimethyl-acetamide] were, in that order, 0.0022 µM and 0.18 µM.
For `Cc1cc(-c2ccc([C@](C)(c3noc(-c4cnn(CC(C)(C)O)c4)n3)C3CC3)cc2)cnc1N` [Example 179, 1-[4-(3-{(R)-1-[4-(6-Amino-5-methyl-pyridin-3-yl)-phenyl]-1-cyclopropyl-ethyl}-[1,2,4]oxadiazol-5-yl)-pyrazol-1-yl]-2-methyl-propan-2-ol], the figures for the IC50 in assay [1] and in assay [2] were 0.0046 µM and 0.049 µM, respectively.
Turning to `Cc1nc(-c2ccc([C@](C)(c3noc(-c4cnn(CC(C)(C)O)c4)n3)C3CC3)cc2)cnc1N` [Example 180, 1-[4-(3-{(R)-1-[4-(5-Amino-6-methyl-pyrazin-2-yl)-phenyl]-1-cyclopropyl-ethyl}-[1,2,4]oxadiazol-5-yl)-pyrazol-1-yl]-2-methyl-propan-2-ol], the IC50 amounted to 0.0029 µM in assay [1] and 0.029 µM in assay [2].
For `Cn1cc(-c2nc([C@@](C)(c3ccc(-c4ccc(N)nc4)cc3)C3CC3)no2)cn1` [Example 181, 5-(4-{(R)-1-Cyclopropyl-1-[5-(1-methyl-1H-pyrazol-4-yl)-[1,2,4]oxadiazol-3-yl]-ethyl}-phenyl)-pyridin-2-ylamine], in that order: 0.0033 µM and 0.051 µM.
For `CN(C)CCn1cc(-c2nc([C@@](C)(c3ccc(-c4cnc(N)nc4)cc3)C3CC3)no2)cn1` [Example 182, 5-[4-((R)-1-Cyclopropyl-1-{5-[1-(2-dimethylamino-ethyl)-1H-pyrazol-4-yl]-[1,2,4]oxadiazol-yl}-ethyl)-phenyl]-pyrimidin-2-ylamine], in that order: 0.0031 µM and 0.014 µM.
Turning to `COCCn1cc(-c2nc([C@@](C)(c3ccc(-c4ccc(N)nc4)cc3)C3CC3)no2)cn1` [Example 183, 5-[4-((R)-1-Cyclopropyl-1-{5-[1-(2-methoxy-ethyl)-1H-pyrazol-4-yl]-[1,2,4]oxadiazol-3-yl}-ethyl)-phenyl]-pyridin-2-ylamine], the results for the IC50 in assay [1] and in assay [2] were 0.0055 µM and 0.039 µM, respectively.
For `Cn1cc(-c2nc([C@@](C)(c3ccc(-c4cnc(N)cn4)cc3)C3CC3)no2)cn1` [Example 184, 5-(4-{(R)-1-Cyclopropyl-1-[5-(1-methyl-1H-pyrazol-4-yl)-[1,2,4]oxadiazol-3-yl]-ethyl}-phenyl)-pyrazin-2-ylamine], in that order: 0.002 µM and 0.023 µM.
For `Cc1cc(-c2ccc([C@](C)(c3noc(-c4cnn(C)c4)n3)C3CC3)cc2)cnc1N` [Example 185, 5-(4-{(R)-1-Cyclopropyl-1-[5-(1-methyl-1H-pyrazol-4-yl)-[1,2,4]oxadiazol-3-yl]-ethyl}-phenyl)-3-methyl-pyridin-2-ylamine], in that order: 0.0019 µM and 0.028 µM.
For `CC(C)C(C)(c1ccc(-c2cnc(N)nc2)cc1)c1noc(N2CCN(CCO)CC2)n1` (centres unmarked) [Example 186, 2-[4-(3-{1-[4-(2-Amino-pyrimidin-5-yl)-phenyl]-1,2-dimethyl-propyl}-[1,2,4]oxadiazol-5-yl)-piperazin-1-yl]-ethanol], the IC50 in assay [1] turned out to be 0.02 µM; in assay [2], 0.15 µM.
The like results for `Cc1nc(-c2ccc([C@](C)(c3noc(-c4cnn(C)c4)n3)C3CC3)cc2)cnc1N` [Example 187, 5-(4-{(R)-1-Cyclopropyl-1-[5-(1-methyl-1H-pyrazol-4-yl)-[1,2,4]oxadiazol-3-yl]-ethyl}-phenyl)-3-methyl-pyrazin-2-ylamine] were, in that order, 0.017 µM and 0.023 µM.
On to `COCCn1cc(-c2nc([C@@](C)(c3ccc(-c4cnc(N)c(C)c4)cc3)C3CC3)no2)cn1` [Example 188, 5-[4-((R)-1-Cyclopropyl-1-{5-[1-(2-methoxy-ethyl)-1H-pyrazol-4-yl]-[1,2,4]oxadiazol-3-yl}-ethyl)-phenyl]-3-methyl-pyridin-2-ylamine], for which the IC50 in assay [1] is 0.048 µM; in assay [2], 0.051 µM.
In the case of `COCCn1cc(-c2nc([C@@](C)(c3ccc(-c4cnc(N)c(C)n4)cc3)C3CC3)no2)cn1` [Example 189, 5-[4-((R)-1-Cyclopropyl-1-{5-[1-(2-methoxy-ethyl)-1H-pyrazol-4-yl]-[1,2,4]oxadiazol-3-yl}-ethyl)-phenyl]-3-methyl-pyrazin-2-ylamine], the IC50 turned out to be 0.013 µM in assay [1] and 0.049 µM in assay [2].
For `C[C@@](c1ccc(-c2cnc(N)nc2)cc1)(c1noc(-c2cnn(CCN)c2)n1)C1CC1` [Example 190, 5-[4-((R)-1-{5-[1-(2-Amino-ethyl)-1H-pyrazol-4-yl]-[1,2,4]oxadiazol-3-yl}-1-cyclopropyl-ethyl)-phenyl]-pyrimidin-2-ylamine], in that order: 0.0059 µM and 0.23 µM.
The like results for `COCCn1cc(-c2nc([C@@](C)(c3ccc(-c4cnc(N)cn4)cc3)C3CC3)no2)cn1` [Example 191, 5-[4-((R)-1-Cyclopropyl-1-{5-[1-(2-methoxy-ethyl)-1H-pyrazol-4-yl]-[1,2,4]oxadiazol-3-yl}-ethyl)-phenyl]-pyrazin-2-ylamine] were, in that order, 0.0059 µM and 0.017 µM.
For `CC(C)C(C)(c1ccc(-c2cnc(N)nc2)cc1)c1noc(N2CCN(C(N)=O)CC2)n1` (centres unmarked) [Example 192, 4-(3-{1-[4-(2-Amino-pyrimidin-5-yl)-phenyl]-1,2-dimethyl-propyl} [1,2,4]oxadiazol-5-yl)-piperazine-1-carboxylic acid amide], in that order: 0.023 µM and 0.74 µM.
In the case of `CC(C)C(C)(c1ccc(-c2cnc(N)nc2)cc1)c1noc(N2CCN(CC(=O)N(C)C)CC2)n1` (centres unmarked) [Example 193, 2-[4-(3-{1-[4-(2-Amino-pyrimidin-5-yl)-phenyl]-1,2-dimethyl-propyl}-[1,2,4]oxadiazol-5-yl)-piperazin-1-yl]-N,N-dimethyl-acetamide], the results for the IC50 in assay [1] and in assay [2] were 0.018 µM and 0.23 µM, respectively.
For `COCCN(C)C(=O)Cn1cc(-c2nc([C@@](C)(c3ccc(-c4cnc(N)nc4)cc3)C3CC3)no2)cn1` [Example 194, 2-[4-(3-{(R)-1-[4-(2-Amino-pyrimidin-5-yl)-phenyl]-1-cyclopropyl-ethyl}-[1,2,4]oxadiazol-5-yl)-pyrazol-1-yl]-N-(2-methoxy-ethyl)-N-methyl-acetamide], in that order: 0.006 µM and 0.096 µM.
For `C[C@@](c1ccc(-c2cnc(N)cn2)cc1)(c1noc(-c2cnc(N3CCNCC3)cn2)n1)C1CC1` [Example 195, 5-(4-{(R)-1-Cyclopropyl-1-[5-(3,4,5,6-tetrahydro-2H-[1,2′]bipyrazinyl-5′-yl)-[1,2,4]oxadiazol-3-yl]-ethyl}-phenyl)-pyrazin-2-ylamine], in that order: 0.0046 µM and 0.28 µM.
Regarding `C[C@@](c1ccc(-c2cnc(N)nc2)cc1)(c1noc(-c2cnc(N3CCNCC3)cn2)n1)C1CC1` [Example 196, 5-(4-{(R)-1-Cyclopropyl-1-[5-(3,4,5,6-tetrahydro-2H-[1,2′]bipyrazinyl-5′-yl)-[1,2,4]oxadiazol-3-yl]-ethyl}-phenyl)-pyrimidin-2-ylamine], the results for the IC50 in assay [1] and in assay [2] were 0.0022 µM and 0.18 µM, respectively.
For `CN(C)C(=O)Cn1cc(-c2nc([C@@](C)(c3ccc(-c4cnc(N)[nH]c4=O)cc3)C3CC3)no2)cn1` [Example 197, 2-[4-(3-{(R)-1-[4-(2-amino-6-oxo-1,6-dihydro-pyrimidin-5-yl)-phenyl]-1-cyclopropyl-ethyl}-[1,2,4]oxadiazol-5-yl)-pyrazol-1-yl]-N,N-dimethyl-acetamide], in that order: 0.016 µM and greater than 5 µM.
Turning to `CC(C)C(C)(c1ccc(-c2cnc(N)nc2)cc1)c1noc(N2CCC(C(C)(C)O)CC2)n1` (centres unmarked) [Example 198, 2-[1-(3-{1-[4-(2-Amino-pyrimidin-5-yl)-phenyl]-1,2-dimethyl-propyl}-[1,2,4]oxadiazol-5-yl)-piperidin-4-yl]-prop an-2-ol], the IC50 in assay [1] worked out at 0.0075 µM; in assay [2], 0.28 µM.
The like results for `CC(C)C(C)(c1ccc(-c2cnc(N)nc2)cc1)c1noc(N2CCNC(=O)C2)n1` (centres unmarked) [Example 199, 4-(3-{1-[4-(2-Amino-pyrimidin-5-yl)-phenyl]-1,2-dimethyl-propyl}-[1,2,4]oxadiazol-5-yl)-piperazin-2-one] were, in that order, 0.032 µM and 0.69 µM.
For `CC(C)C(C)(c1ccc(-c2cnc(N)nc2)cc1)c1noc(N2CC(O)C2)n1` (centres unmarked) [Example 200, 1-(3-{1-[4-(2-Amino-pyrimidin-5-yl)-phenyl]-1,2-dimethyl-propyl}-[1,2,4]oxadiazol-5-yl)-azetidin-3-ol], in that order: 0.015 µM and 0.25 µM.
